In patent US9802929B2, “Benzo five-membered nitrogen heterocyclic piperidine or piperazine derivatives and preparation methods and pharmaceutical compositions thereof” (Shenyang Haiwang Biotechnology Co., Ltd., priority 2012, dated 2017):
Where “and” joins values, the source holds several entries; their conditions need not be identical. Equal entries are not always repeated. Structures can show the parent of a compound that is named as a salt.

How the values were obtained:
[1] = test system: α1 receptors; experiment: Antagonism of α receptor agonist (noradrenaline / phenylephrine) cumulative contraction of rabbit aorta, pA2
Excerpt: (§1) Cut the chest open quickly after stunning, strip out the descending aorta, then after removing the surrounding connective tissue and adipose tissue (if performed serotonin receptor antagonist experiments, endothelial cells should be removed using a smooth stainless steel bars), cut the vessels into 3-5 mm vascular ring, then pass the steel hook through the blood vessel ring, with one end is fixed to the vent hook and the other end connected to the tension transducer, then place the specimens into bath tube containing 20 mL of nutrient solution, and record tension change by tension transducer. Maintain tube temperature at 37±0.5° C., and pass bubbles (95% O2+5% CO2) into the solution as a speed of 1-2 bubbles/minute. Place an initial load of 1.5 g on the rings, and change nutrient every 20 minutes, then balance for 2 hours and start test after baseline readings are stabilized.
After the tension is stabilized, record a certain length of the curve, and add NA (10^−8-10^−4 mol/L) to the tube until a maximum response is achieved, and then record the curve. Then wash the specimen with K—H solution repeatedly, balance for 1 h, add compound II-36 (3×10^−7 mol/L), and 20 minutes later, add NA following a same procedure. Mark NA contraction as ordinate using maximum response as 100% base. […] The larger the PA2 value, the stronger the antagonist effect. It is calculated based on the values of the attached figures by software.
After the tension is stabilized, record a certain length of the curve, and add NA (10^−8-10^−4 mol/L) to the tube until a maximum response is achieved, and then record the curve. Then wash the specimens repeatedly with K—H solution, and refresh K—H solution every 20 minutes, and balance for 60 minutes to allow baseline values are stabilized; then add doxazosin (10^−7 mol/L) and after 15 minutes, add NA in the same way (10^−8-6×10^−5 mol/L). Mark NA contraction as ordinate using maximum response as 100% base. […] The PA2 value of positive control doxazosin is 7.52±0.04 against NA contraction of rabbit aorta.
(§2) After the tension is stabilized, record a certain length of the curve, and add NA (3×10^−7-6×10^−5 mol/L) to the tube until a maximum response is achieved, and then record the curve. Then wash the specimen with K—H solution repeatedly, balance for 1 h, add compound II-65 (3×10^−6 mol/L), and 20 minutes later, add NA (3×10^−7-3×10^−4 mol/L) following a same procedure. Mark NA contraction as ordinate using maximum response as 100% base. […] PA2 value of compound II-65 is 6.02±0.13 against NA contraction effect on rabbit aorta.
After above procedures, wash the specimen repeatedly with K—H solution, balance for 1 hour, add doxazosin (10^−7 mol/L), and add NA in the same way after 15 minutes. Mark NA contraction as ordinate using maximum response as 100% base. […] The PA2 value of positive control doxazosin is 7.16±0.24 against NA contraction of rabbit aorta.
as §2, with “Phenylephrine (10^−6-6×10^−3” for “NA (3×10^−7-6×10^−5”, “II-68 (3×10^−8” for “II-65 (3×10^−6”, “Phenylephrine” for “NA (3×10^−7-3×10^−4 mol/L)”, “Phenylephrine” for “NA”, “II-68” for “II-65”, “8.45±0.03” for “6.02±0.13”

[2] = test system: Ca^2+ channel; experiment: Antagonism of CaCl2 cumulative contraction of rabbit aorta, pA2; settings: CaCl2 cumulative contraction after Ca-free hyperkalemia depolarization
Excerpt: Calcium-free K—H solution: Remove CaCl2 from K—H solution, add an equal number of moles of KCl, and add EDTA^−2Na^+ 0.1 mmol/L, while the other components remain unchanged.
Calcium-free hyperkalemia solution: Remove CaCl2 from hyperkalemia solution, add an equal number of moles of KCl, and add EDTA^−2Na^+ 0.1 mmol/L, while the other components remain unchanged.
as §1
After the tension is stabilized, wash the specimen three times and incubate with Ca-free K—H solution for 40 minutes; depolarize with Ca-free hyperkalemia solution for 20 minutes, and then add CaCl2 (10^−6-10^−2 mol/L) to the tube until a maximum response is achieved, and then record the curve. Then wash with K—H solution repeatedly, and replace with fresh K—H solution every 20 minutes; after balancing for 60 minutes and the baseline values are stabilized, wash the specimen again three times, and incubate with Ca-free K—H solution for 40 minutes; depolarize with Ca-free hyperkalemia solution for 20 minutes, and then add compound II-36 (3×10^−6 mol/L) to the tube, and incubate for 20 minutes; then add CaCl2 (10^−6-10^−2 mol/L) until a maximum response is achieved, and then record the curve. Mark CaCl2 contraction as ordinate using maximum response as 100% base. […] PA2 value of compound II-36 is 5.61±0.04 against CaCl2 contraction effect on rabbit aorta.
After the tension is stabilized, wash the specimen three times and incubate with Ca-free K—H solution for 40 minutes; depolarize with Ca-free hyperkalemia solution for 20 minutes, and then add CaCl2 (10^−6-10^−2 mol/L) to the tube until a maximum response is achieved, and then record the curve. […]

[3] = test system: Kunming mice; experiment: Bone marrow micronucleus test; settings: of 1000 polychromatic erythrocytes; oral, four days, test on the 5th day; II-36 120 mg/kg/day, cyclophosphamide 60 mg/kg/day
Experimental: After four days of continuous administration, perform bone marrow micronucleus test on the 5th day.
Positive contro, Cyclophosphamide 60 mg/kg/day; negative control, saline solution 0.1 ml/10 g/day. After four days of continuous administration, perform bone marrow micronucleus test on the 5th day.
The mice were sacrificed by cervical dislocation, and quickly stripped out of the femur and sternum;
blood and muscles were removed, epiphysis was cleaned; then sternum bone marrow was transfer with a hemostat squeeze onto clean slides with drops of calf serum or wash the femoral the marrow with fetal calf serum directly onto clean slides; after mixing, adjust slides well; then put the adjusted and aired slide into a staining jar filled with methanol, and allow to fix for 15 minutes; and then take it out and place in air until dry out; then, use freshly prepared Giemsa application solution (one sample of Giemsa stock solution and nine samples of phosphate buffer pH 6.8), stained for 10 minutes to wash away slide dye with small stream of water, and then observe under a microscope after it is dried.

[4] = Acute toxicity test, simplified probability unit method; settings: both sexes, mouse, in vivo; oral administration, Kunming mice
[5] = test system: In-Vitro Vascular Smooth Muscle of Rabbits; experiment: Relaxant effect on in vitro rabbit vascular smooth muscle contraction induced by hyperkalemia solution; settings: Oryctolagus cuniculus, relaxation of rabbit aortic rings contracted by hyperkalemia solution (K+ 60 mmol/L)

## COc1cc2nc(N3CCN(C(=O)C4COc5ccccc5O4)CC3)nc(N)c2cc1OC (stereo not drawn) [doxazosin, Doxazosin Mesylate, reference compound]
[1]; Phenylephrine cumulative contraction
  PA2 value against Phenylephrine contraction: 7.52±0.04
[1]; noradrenaline (NA) cumulative contraction
  PA2 value against NA contraction: 7.52±0.04 and 7.16±0.24

## CCOC(=O)C1=C(COCCN)NC(C)=C(C(=O)OC)C1c1ccccc1Cl (stereo not drawn) [amlodipine, Amlodipine Besylate, reference compound]
[2]
  PA2 value against CaCl2 contraction: 6.99±0.05 and 7.15±0.288

## O=P1(N(CCCl)CCCl)NCCCO1 (stereo not drawn) [cyclophosphamide, Cyclophosphamide, reference compound]
[3]
  polychromatic erythrocytes with micronucleus: 12 ‰

## Clc1cccc(C2CCN(CCCCn3nnc4ccccc43)CC2)c1 [II-2, N-(4-(1H-benzotriazole-1-yl)butyl)-4-(3-chlorophenyl)piperidine]
[4]
  LD50: 362 mg/kg
[5]
  EC50: 15.1 µM
